Marks after values point to notes of the source that are not given here.
Columns and labels:
[1] = molecular target: human RORγt ligand binding domain (RORγt LBD) (Homo sapiens (Human), UniProt P51449); assay: RORγt ThermoFluor assay
Method in brief: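 Thermal shift of His-tagged human RORγt LBD (0.065 mg/mL) with 60 μM 1,8-ANS in 100 mM Hepes pH 7.0, 10 mM NaCl, 2.5 mM GSH, 0.002% Tween-20, heated at 1° C./min. Compounds in 1:2 series from a 10 mM DMSO stock; KD estimated from ΔTm using protein unfolding thermodynamics.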

[2] = molecular target: full-length human RORγt (Homo sapiens (Human), UniProt P51449); assay: RORγt (full-length human) reporter assay, conditions A or B; type: cell-based; conditions: for IC50: HEK293T cells, read-out: RORγt (FL) Reporter Assay A or B, IC50; for inhibition at 6 µM: read-out: RORγt (FL) Reporter Assay A or B, % inhibition @ 6 μM, 6 μM compound concentration; for inhibition at 2 µM: 2 μM compound concentration (**); for inhibition at 2 µM / inhibition at 0.67 µM / inhibition at 0.22 µM: read-out: RORγt (FL) Reporter Assay A or B, % inhibition; for inhibition at 0.22 µM: 0.22 μM compound concentration (******)
Method in brief: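 HEK293T cells transiently co-transfected (PEI) with GAL4-DBD–RORγt, GAL4-firefly luciferase and CMV-Renilla reporters; condition A 35,000 cells/well, 170.5 ng DNA/well; condition B 8750 cells/well, 42.6 ng DNA/well.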

[3] = 0.67 μM compound concentration (****)

full-length human RORγt, sequence (P51449 other isoform, or with tags, fused parts or gaps): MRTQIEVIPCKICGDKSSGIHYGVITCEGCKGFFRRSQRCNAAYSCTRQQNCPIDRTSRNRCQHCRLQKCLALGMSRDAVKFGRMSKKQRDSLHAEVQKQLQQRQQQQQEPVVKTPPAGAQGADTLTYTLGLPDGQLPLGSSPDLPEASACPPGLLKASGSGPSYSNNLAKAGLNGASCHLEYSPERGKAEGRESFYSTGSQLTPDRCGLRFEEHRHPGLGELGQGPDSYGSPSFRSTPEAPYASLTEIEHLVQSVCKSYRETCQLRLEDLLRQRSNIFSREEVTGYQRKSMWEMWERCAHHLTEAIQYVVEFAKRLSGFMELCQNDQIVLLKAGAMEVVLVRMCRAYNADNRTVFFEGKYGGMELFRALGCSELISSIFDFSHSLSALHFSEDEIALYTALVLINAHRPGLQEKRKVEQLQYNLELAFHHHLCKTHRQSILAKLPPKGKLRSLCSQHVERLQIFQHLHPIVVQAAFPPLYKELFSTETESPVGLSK
human RORγt ligand binding domain (RORγt LBD), sequence (P51449 other isoform, or with tags, fused parts or gaps): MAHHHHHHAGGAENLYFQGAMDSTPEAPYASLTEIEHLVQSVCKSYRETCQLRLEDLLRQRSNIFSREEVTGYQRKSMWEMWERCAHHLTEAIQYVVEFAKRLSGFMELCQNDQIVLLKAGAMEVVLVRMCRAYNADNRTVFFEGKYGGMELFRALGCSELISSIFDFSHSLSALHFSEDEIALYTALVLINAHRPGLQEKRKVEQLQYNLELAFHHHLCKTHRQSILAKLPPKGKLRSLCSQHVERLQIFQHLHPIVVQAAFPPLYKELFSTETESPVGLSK

Row | Structure (SMILES) | Kd [1] | IC50 [2] | inhibition at 6 µM [2] | inhibition at 2 µM [2] | inhibition at 0.67 µM [2, 3] | RORγt (FL) Reporter Assay A or B, % inhibition [2, 3] | inhibition at 0.22 µM [2]
1 | CCc1nc(C(=O)NC[C@]2(O)CC[C@@H](S(C)(=O)=O)CC2)c(C#N)n1-c1ccc(CCC(F)(F)F)cc1OC(F)F [Example 25, 5-Cyano-1-(2-(difluoromethoxy)-4-(3,3,3-trifluoropropyl)phenyl)-2-ethyl-N-(((1s,4s)-1-hydroxy-4-(methylsulfonyl)cyclohexyl)methyl)-1H-imidazole-4-carboxamide] | 84 nM | 370 nM | 101% | – | – | – | –
2 | CCc1nc(C(=O)NC[C@H]2CC[C@H](S(C)(=O)=O)CC2)c(C#N)n1-c1ccc(CCC(F)(F)F)cc1OC(F)F [Example 26, 5-Cyano-1-(2-(difluoromethoxy)-4-(3,3,3-trifluoropropyl)phenyl)-2-ethyl-N-(((1r,4r)-4-(methylsulfonyl)cyclohexyl)methyl)-1H-imidazole-4-carboxamide] | 24 nM | 54 nM | 96% | – | – | – | –
3 | [2H]C([2H])([2H])Oc1cc(CC(C)(C)C(F)(F)F)ccc1-n1c(CC)nc(C(=O)NC[C@]2(O)CC[C@@H](S(C)(=O)=O)CC2)c1C#N [Example 28, 5-Cyano-2-ethyl-N-(((1s,4s)-1-hydroxy-4-(methylsulfonyl)cyclohexyl)methyl)-1-(2-(methoxy-d3)-4-(3,3,3-trifluoro-2,2-dimethylpropyl)phenyl)-1H-imidazole-4-carboxamide] | 2.5 nM | 33 nM | – | 102% | – | – | –
4 | [2H]C([2H])([2H])Oc1cc(CCC(F)(F)F)ccc1-n1c(CC)nc(C(=O)NC[C@H]2CC[C@H](S(C)(=O)=O)CC2)c1C#N [Example 29, 5-Cyano-2-ethyl-1-(2-(methoxy-d3)-4-(3,3,3-trifluoropropyl)phenyl)-N-(((1r,4r)-4-(methylsulfonyl)cyclohexyl)methyl)-1H-imidazole-4-carboxamide] | 15 nM | 87 nM | 95% | – | – | – | –
5 | [2H]C([2H])([2H])Oc1cc(CCC(F)(F)F)ccc1-n1c(CC)nc(C(=O)NC[C@]2(O)CC[C@@H](S(C)(=O)=O)CC2)c1C#N [Example 30, 5-Cyano-2-ethyl-N-(((1s,4s)-1-hydroxy-4-(methylsulfonyl)cyclohexyl)methyl)-1-(2-(methoxy-d3)-4-(3,3,3-trifluoropropyl)phenyl)-1H-imidazole-4-carboxamide] | 44 nM | 320 nM | 96% | – | – | – | –
6 | [2H]C([2H])([2H])Oc1cc(CC(C)(C)C(F)(F)F)ccc1-n1c(CC)nc(C(=O)NC[C@]2(C#N)CC[C@@H](S(C)(=O)=O)CC2)c1F [Example 31, N-(((1s*,4s*)-1-Cyano-4-(methylsulfonyl)cyclohexyl)methyl)-2-ethyl-5-fluoro-1-(2-(methoxy-d3)-4-(3,3,3-trifluoro-2,2-dimethylpropyl)phenyl)-1H-imidazole-4-carboxamide] | 14 nM | 78 nM | – | 101% | – | – | –
7 | [2H]C([2H])([2H])Oc1cc(CC(C)(C)C(F)(F)F)ccc1-n1c(CC)nc(C(=O)NC[C@]2(O)CC[C@@H](S(C)(=O)=O)CC2)c1F [Example 32, 2-Ethyl-5-fluoro-N-(((1s,4s)-1-hydroxy-4-(methylsulfonyl)cyclohexyl)methyl)-1-(2-(methoxy-d3)-4-(3,3,3-trifluoro-2,2-dimethylpropyl)phenyl)-1H-imidazole-4-carboxamide] | 12 nM | 71 nM | – | 99% | – | – | –
8 | [2H]C([2H])([2H])Oc1cc(CC(C)(C)C(F)(F)F)ccc1-n1c(CC)nc(C(=O)NC[C@H]2CC[C@H](S(C)(=O)=O)CC2)c1F [Example 33, 2-Ethyl-5-fluoro-1-(2-(methoxy-d3)-4-(3,3,3-trifluoro-2,2-dimethylpropyl)phenyl)-N-(((1r,4r)-4-(methylsulfonyl)cyclohexyl)methyl)-1H-imidazole-4-carboxamide] | 4.8 nM | 15 nM | – | – | 94% | – | –
9 | CCc1nc(C(=O)NC[C@H]2CC[C@H](S(C)(=O)=O)CC2)c(F)n1-c1ccc(CC(C)(C)C(F)(F)F)cc1OC(F)F [Example 34, 1-(2-(Difluoromethoxy)-4-(3,3,3-trifluoro-2,2-dimethylpropyl)phenyl)-2-ethyl-5-fluoro-N-(((1r,4r)-4-(methylsulfonyl)cyclohexyl)methyl)-1H-imidazole-4-carboxamide] | 3.5 nM | 37 nM | – | 98% | – | – | –
10 | CCc1nc(C(=O)NC[C@]2(O)CC[C@@H](S(C)(=O)=O)CC2)c(F)n1-c1ccc(CC(C)(C)C(F)(F)F)cc1OC(F)F [Example 35, 1-(2-(Difluoromethoxy)-4-(3,3,3-trifluoro-2,2-dimethylpropyl)phenyl)-2-ethyl-5-fluoro-N-(((1s,4s)-1-hydroxy-4-(methylsulfonyl)cyclohexyl)methyl)-1H-imidazole-4-carboxamide] | 11 nM | 28 nM | 97% | – | – | – | –
11 | CCc1nc(C(=O)NC[C@]2(C#N)CC[C@@H](S(C)(=O)=O)CC2)c(C#N)n1-c1ccc(CC(C)(C)C(F)(F)F)cc1OC(F)F [Example 37, 5-Cyano-N-(((1s*,4s*)-1-cyano-4-(methylsulfonyl)cyclohexyl)methyl)-1-(2-(difluoromethoxy)-4-(3,3,3-trifluoro-2,2-dimethylpropyl)phenyl)-2-ethyl-1H-imidazole-4-carboxamide] | 0.87 nM | 5.3 nM | – | – | – | 105**** % | –
12 | CCc1nc(C(=O)NC[C@]2(C#N)CC[C@@H](S(C)(=O)=O)CC2)c(F)n1-c1ccc(CC(C)(C)C(F)(F)F)cc1OC(F)F [Example 38, N-(((1s*,4s*)-1-Cyano-4-(methylsulfonyl)cyclohexyl)methyl)-1-(2-(difluoromethoxy)-4-(3,3,3-trifluoro-2,2-dimethylpropyl)phenyl)-2-ethyl-5-fluoro-1H-imidazole-4-carboxamide] | 4.4 nM | 19 nM | – | – | 97% | – | –
13 | C#Cc1c(C(=O)NC[C@]2(C#N)CC[C@@H](S(C)(=O)=O)CC2)nc(CC)n1-c1ccc(CC(C)(C)C(F)(F)F)cc1OC(F)F [Example 39, N-(((1s*,4s*)-1-Cyano-4-(methylsulfonyl)cyclohexyl)methyl)-1-(2-(difluoromethoxy)-4-(3,3,3-trifluoro-2,2-dimethylpropyl)phenyl)-2-ethyl-5-ethynyl-1H-imidazole-4-carboxamide] | 0.42 nM | 7.9 nM | – | – | 101% | – | –
14 | C#Cc1c(C(=O)NC[C@]2(O)CC[C@@H](S(C)(=O)=O)CC2)nc(CC)n1-c1ccc(CC(C)(C)C(F)(F)F)cc1OC(F)F [Example 40, 1-(2-(Difluoromethoxy)-4-(3,3,3-trifluoro-2,2-dimethylpropyl)phenyl)-2-ethyl-5-ethynyl-N-(((1s,4s)-1-hydroxy-4-(methylsulfonyl)cyclohexyl)methyl)-1H-imidazole-4-carboxamide] | 0.73 nM | 3.2 nM | – | 105% | – | – | –
15 | C#Cc1c(C(=O)NC[C@H]2CC[C@H](S(C)(=O)=O)CC2)nc(CC)n1-c1ccc(CC(C)(C)C(F)(F)F)cc1OC(F)F [Example 41, 1-(2-(Difluoromethoxy)-4-(3,3,3-trifluoro-2,2-dimethylpropyl)phenyl)-2-ethyl-5-ethynyl-N-(((1r,4r)-4-(methylsulfonyl)cyclohexyl)methyl)-1H-imidazole-4-carboxamide] | 0.19 nM | 2.7 nM | – | – | 106% | – | –
16 | CCc1nc(C(=O)NC[C@H]2CC[C@H](S(C)(=O)=O)CC2)c(Cl)n1-c1ccc(CC(C)(C)C(F)(F)F)c(OC)c1 [Example 42, 5-Chloro-2-ethyl-1-(3-methoxy-4-(3,3,3-trifluoro-2,2-dimethylpropyl)phenyl)-N-(((1r,4r)-4-(methylsulfonyl)cyclohexyl)methyl)-1H-imidazole-4-carboxamide] | 1.1 nM | 6.2 nM | – | – | – | – | 66%
17 | CCc1nc(C(=O)NC[C@]2(O)CC[C@@H](S(C)(=O)=O)CC2)c(Cl)n1-c1ccc(CC(C)(C)C(F)(F)F)c(OC)c1 [Example 43, 5-Chloro-2-ethyl-N-(((1s,4s)-1-hydroxy-4-(methylsulfonyl)cyclohexyl)methyl)-1-(3-methoxy-4-(3,3,3-trifluoro-2,2-dimethylpropyl)phenyl)-1H-imidazole-4-carboxamide] | 2.2 nM | 3.2 nM | – | – | 86% | – | –
18 | CCc1nc(C(=O)NC[C@H]2CC[C@H](S(C)(=O)=O)CC2)c(C)n1-c1ccc(CC(C)(C)C(F)(F)F)c(OC)c1 [Example 44, 2-Ethyl-1-(3-methoxy-4-(3,3,3-trifluoro-2,2-dimethylpropyl)phenyl)-5-methyl-N-(((1r,4r)-4-(methylsulfonyl)cyclohexyl)methyl)-1H-imidazole-4-carboxamide] | 4.1 nM | 31 nM | – | – | – | – | 75%
19 | CCc1nc(C(=O)NC[C@]2(O)CC[C@@H](S(C)(=O)=O)CC2)c(C)n1-c1ccc(CC(C)(C)C(F)(F)F)c(OC)c1 [Example 45, 2-Ethyl-N-(((1s,4s)-1-hydroxy-4-(methylsulfonyl)cyclohexyl)methyl)-1-(3-methoxy-4-(3,3,3-trifluoro-2,2-dimethylpropyl)phenyl)-5-methyl-1H-imidazole-4-carboxamide] | 7.7 nM | 11 nM | – | – | 77% | – | –

Reference: US11345666B2, “Phenyl and pyridinyl substituted imidazoles as modulators of RORγT” (Janssen Pharmaceutica NV, priority 2018, dated 2022)
